From patent US7504420B2, “Compounds which inhibit beta-secretase activity and methods of use” (CoMentis, Inc., priority 2005, dated 2009)

Experiments:
memapsin 2 = memapsin 2 (Homo sapiens, UniProt P56817); assay: Inhibition of memapsin 2 catalytic activity (Ki); format: biochemical; details: memapsin 2, pH 4, 37° C.; read-out: M2K
Method in brief: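 Run at 37 °C and pH 4: compound and enzyme pre-incubated 20 min before FS-2 fluorogenic substrate started hydrolysis,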

cathepsin D = cathepsin D (Homo sapiens, UniProt P07339); assay: Inhibition of cathepsin D catalytic activity (Ki); format: biochemical; details: pH 4.0, 37° C., read-out: CDK
Protocol: A substrate peptide NH3-ELDLAVEFWHDR-CO2 (SEQ ID NO.:1) (used for inhibition assay of memapsin 2, memapsin 1, and cathepsin D) was dissolved at 2 mg/ml in DMSO and diluted 1:100 in 0.1 M sodium acetate, pH 4.0 just prior to assay. Inhibitor dissolved in DMSO was diluted into 0.1 M sodium acetate, pH 4.0 (1:100 dilution). A […] aliquot of the inhibitor solution in pH 4 buffer was combined with […] of 0.1 M sodium acetate containing 100-200 nM of memapsin 1, memapsin 2, or cathepsin D. Following a pre-incubation at 37° C., the proteolytic assay was initated by addition of […] of the substrate diluted into pH 4 buffer, and incubation continued at 37° C. Aliquots were removed at time intervals, and combined with an equal volume of MALDI-TOF matrix (α-hydroxycinnamic acid in acetone, 20 mg/ml) and immediately spotted in duplicate onto a stainless-steel MALDI sample plate. MALDI-TOF mass spectrometry was performed on a PE Biosystems Voyager DE instrument at the Molecular Biology Resource Center on campus. The instrument was operated at 25,000 accelerating volts in positive mode with a 150 ns delay. Ions with a mass-to-charge ratio (m/z) were detected in the range of 650-2000 atomic mass units. Data were analyzed by the Voyager Data Explorer module to obtain ion intensity data for mass species of substrates and corresponding products in a given mixture. Relative product formation was calculated as the ratio of signal intensity of the product to the sum of signal intensities of both product and the corresponding substrate. Relative product formed per unit time was obtained from non-linear regression analysis of the data representing the initial 15% formation of product using the model: 1−e^−kT, where k was the relative hydrolytic rate constant and T was time in seconds. Alternatively, relative hydrolytic rates were determined using a fluorogenic cleavage assay (Ermolieff, J. et al., Biochemistry, 39: 12450-12456 (2000)). Initial rates from either method were expressed relative to uninhibited controls and the inhibition constant Ki was determined by a non-linear fit to a tight-binding model of competitive inhibition (Bieth, J., Bayer-Symposium V: Proteinase Inhibitors, pp 463-469, Spinger-Varlag, Berlin (1994)). Results are shown in Table 1 above (M2K, CDK, and M1K columns represent, respectively, the K1 values obtained for memapsin 2, cathepsin D and memapsin 1).

[1] = test system: Aβ production in Chinese hamster ovary cells that over-express human APP695 with the London and Swedish mutations; assay: Cellular Aβ IC50 determination (Aβ40 sandwich ELISA); details: Cricetulus griseus, CHO, 24 h, read-out: Cell, Aβ40, CHO cells over-expressing human APP695 (London and Swedish mutations), 24 h

Chain of memapsin 2 (P56817 46-501): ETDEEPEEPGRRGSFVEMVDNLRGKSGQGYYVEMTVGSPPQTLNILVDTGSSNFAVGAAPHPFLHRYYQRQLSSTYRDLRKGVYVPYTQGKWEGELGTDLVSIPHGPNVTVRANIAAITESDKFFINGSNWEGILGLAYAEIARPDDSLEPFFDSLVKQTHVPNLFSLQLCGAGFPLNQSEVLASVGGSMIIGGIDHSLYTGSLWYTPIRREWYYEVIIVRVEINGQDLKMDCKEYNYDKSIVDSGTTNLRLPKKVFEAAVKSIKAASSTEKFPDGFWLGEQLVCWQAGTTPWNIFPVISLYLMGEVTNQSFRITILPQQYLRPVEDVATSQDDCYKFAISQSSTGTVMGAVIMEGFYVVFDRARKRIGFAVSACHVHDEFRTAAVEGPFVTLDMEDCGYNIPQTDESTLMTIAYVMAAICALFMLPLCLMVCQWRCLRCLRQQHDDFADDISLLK
Chain of cathepsin D (P07339 65-412, species assumed): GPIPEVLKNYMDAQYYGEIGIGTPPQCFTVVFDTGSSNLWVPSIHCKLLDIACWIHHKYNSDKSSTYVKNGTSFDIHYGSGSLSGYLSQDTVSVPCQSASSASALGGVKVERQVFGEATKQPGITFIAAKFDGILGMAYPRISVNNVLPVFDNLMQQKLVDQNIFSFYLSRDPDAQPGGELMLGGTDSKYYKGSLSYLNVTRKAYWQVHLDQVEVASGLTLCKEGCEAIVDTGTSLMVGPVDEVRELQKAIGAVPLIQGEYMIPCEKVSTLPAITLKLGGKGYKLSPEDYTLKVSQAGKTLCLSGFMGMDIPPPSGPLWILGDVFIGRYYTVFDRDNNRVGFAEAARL

| SMILES | Ki (memapsin 2) [nM] | Ki (cathepsin D) [nM] | IC50 [1] [nM] |
| --- | --- | --- | --- |
| COc1cccc(CNCC(O)C(Cc2ccccc2)NC(=O)c2cc(C(=O)NCc3cncc(O)c3)cc(N(C)S(C)(=O)=O)c2)c1 (stereo not drawn) [N1-(3-hydroxy-4-(3-methoxybenzylamino)-1-phenylbutan-2-yl)-N3-((5-hydroxypyridin-3-yl)methyl)-5-(N-methylmethylsulfonamido)isophthalamide] | > 501 | > 501 | < 1000 |
| Cc1csc(CN(C)C(=O)c2cccc(C(=O)NC(Cc3ccccc3)C(O)CNCCN3CCCC3)c2)n1 (stereo not drawn) [N1-(3-hydroxy-1-phenyl-4-(2-(pyrrolidin-1-yl)ethylamino)butan-2-yl)-N3-methyl-N3-((4-methylthiazol-2-yl)methyl)isophthalamide] | > 501 | > 501 | > 5000 |
| COc1cccc(CNCC(O)C(Cc2ccccc2)NC(=O)c2cc(C(=O)N(C)Cc3nc(C)cs3)cc(N(C)S(C)(=O)=O)c2)c1 (stereo not drawn) [N1-(3-hydroxy-4-(3-methoxybenzylamino)-1-phenylbutan-2-yl)-N3-methyl-5-(N-methylmethylsulfonamido)-N3-((4-methylthiazol-2-yl)methyl)isophthalamide] | < 300 | < 300 | < 1000 |
| CC(NC(=O)c1cc(C(=O)NC(Cc2ccccc2)C(O)CNCCN2CCOCC2)cc(N(C)S(C)(=O)=O)c1)c1ccccc1 (stereo not drawn) [N1-(3-hydroxy-4-(2-morpholinoethylamino)-1-phenylbutan-2-yl)-5-(N-methylmethylsulfonamido)-N3-(1-phenylethyl)isophthalamide] | 301 to 500 | > 501 | 1000 to 5000 |
| CC(NC(=O)c1cc(C(=O)NC(Cc2ccccc2)C(O)CNCC2CCCNC2)cc(N(C)S(C)(=O)=O)c1)c1ccccc1 (stereo not drawn) [N1-(3-hydroxy-1-phenyl-4-(piperidin-3-ylmethylamino)butan-2-yl)-5-(N-methylmethylsulfonamido)-N3-(1-phenylethyl)isophthalamide] | > 501 | > 501 | > 5000 |
| CC(NC(=O)c1cc(C(=O)NC(Cc2ccccc2)C(O)CNCc2nc3ccccc3[nH]2)cc(N(C)S(C)(=O)=O)c1)c1ccccc1 (stereo not drawn) [N1-(4-((1H-benzo[d]imidazol-2-yl)methylamino)-3-hydroxy-1-phenylbutan-2-yl)-5-(N-methylmethylsulfonamido)-N3-(1-phenylethyl)isophthalamide] | < 300 | < 300 | 1000 to 5000 |
| COc1cccc(CNCC(O)C(Cc2ccccc2)NC(=O)c2cccc(C(=O)N(C)Cc3nc(C)cs3)c2F)c1 (stereo not drawn) [2-fluoro-N1-(3-hydroxy-4-(3-methoxybenzylamino)-1-phenylbutan-2-yl)-N3-methyl-N3-((4-methylthiazol-2-yl)methyl)isophthalamide] | > 501 | < 300 | 1000 to 5000 |
| CC(NCC(O)C(Cc1ccccc1)NC(=O)c1cc(C(=O)NC(C)c2ccccc2)cc(N(C)S(C)(=O)=O)c1)c1cccnc1 (stereo not drawn) [N1-(3-hydroxy-1-phenyl-4-(1-(pyridin-3-yl)ethylamino)butan-2-yl)-5-(N-methylmethylsulfonamido)-N3-(1-phenylethyl)isophthalamide] | < 300 | < 300 | < 1000 |
| COc1cccc(CNCC(O)C(Cc2ccccc2)NC(=O)c2cc(C(=O)NC(C)c3ccccc3)c(F)cc2F)c1 (stereo not drawn) [4,6-difluoro-N1-(3-hydroxy-4-(3-methoxybenzylamino)-1-phenylbutan-2-yl)-N3-(1-phenylethyl)isophthalamide] | > 501 | < 300 | 1000 to 5000 |
| COc1cccc(CNCC(O)C(Cc2ccccc2)NC(=O)c2cccc(C(=O)N(Cc3nc(C)cs3)N(C)C)c2)c1 (stereo not drawn) [3-(2,2-dimethyl-1-((4-methylthiazol-2-yl)methyl)hydrazinecarbonyl)-N-(3-hydroxy-4-(3-methoxybenzylamino)-1-phenylbutan-2-yl)benzamide] | > 501 | > 501 | > 5000 |
| CC(NC(=O)c1cc(C(=O)NC(Cc2ccccc2)C(O)CNCc2cccc(OC(F)F)c2)cc(N(C)S(C)(=O)=O)c1)c1ccccc1 (stereo not drawn) [N1-(4-(3-(difluoromethoxy)benzylamino)-3-hydroxy-1-phenylbutan-2-yl)-5-(N-methylmethylsulfonamido)-N3-(1-phenylethyl)isophthalamide] | < 300 | < 300 | < 1000 |
| CCc1cccc(CNCC(O)C(Cc2ccccc2)NC(=O)c2cccc(C(=O)N(C)Cc3nc(C)cs3)c2)c1 (stereo not drawn) [N1-(4-(3-ethylbenzylamino)-3-hydroxy-1-phenylbutan-2-yl)-N3-methyl-N3-((4-methylthiazol-2-yl)methyl)isophthalamide] | < 300 | < 300 | < 1000 |
| CC(NC(=O)c1cc(C(=O)NC(Cc2ccccc2)C(O)CNCCN2CCCC2)cc(N(C)S(C)(=O)=O)c1)c1ccccc1 (stereo not drawn) [N1-(3-hydroxy-1-phenyl-4-(2-(pyrrolidin-1-yl)ethylamino)butan-2-yl)-5-(N-methylmethylsulfonamido)-N3-(1-phenylethyl)isophthalamide] | > 501 | > 501 | > 5000 |
| CC(NC(=O)c1cc(C(=O)NC(Cc2ccccc2)C(O)CNCC2CCNCC2)cc(N(C)S(C)(=O)=O)c1)c1ccccc1 (stereo not drawn) [N1-(3-hydroxy-1-phenyl-4-(piperidin-4-ylmethylamino)butan-2-yl)-5-(N-methylmethylsulfonamido)-N3-(1-phenylethyl)isophthalamide] | > 501 | > 501 | > 5000 |
| COc1cccc(F)c1CNCC(O)C(Cc1ccccc1)NC(=O)c1cc(C(=O)NC(C)c2ccccc2)cc(N(C)S(C)(=O)=O)c1 (stereo not drawn) [N1-(4-(2-fluoro-6-methoxybenzylamino)-3-hydroxy-1-phenylbutan-2-yl)-5-(N-methylmethylsulfonamido)-N3-(1-phenylethyl)isophthalamide] | < 300 | < 300 | < 1000 |
| CC(C)c1cccc(CNCC(O)C(Cc2ccccc2)NC(=O)c2cc(C(=O)NC(C)c3ccccc3)cc(N(C)S(C)(=O)=O)c2)c1 (stereo not drawn) [N1-(3-hydroxy-4-(3-isopropylbenzylamino)-1-phenylbutan-2-yl)-5-(N-methylmethylsulfonamido)-N3-(1-phenylethyl)isophthalamide] | < 300 | < 300 | < 1000 |
| CC(NC(=O)c1cc(C(=O)NC(Cc2ccccc2)C(O)CNCc2cccc(N(C)C)c2)cc(N(C)S(C)(=O)=O)c1)c1ccccc1 (stereo not drawn) [N1-(4-(3-(dimethylamino)benzylamino)-3-hydroxy-1-phenylbutan-2-yl)-5-(N-methylmethylsulfonamido)-N3-(1-phenylethyl)isophthalamide] | < 300 | > 501 | < 1000 |
| Cc1csc(CN(C)C(=O)c2cccc(C(=O)NC(Cc3ccccc3)C(O)CNCc3cccc(CF)c3)c2)n1 (stereo not drawn) [N1-(4-(3-(fluoromethyl)benzylamino)-3-hydroxy-1-phenylbutan-2-yl)-N3-methyl-N3-((4-methylthiazol-2-yl)methyl)isophthalamide] | < 300 | < 300 | < 1000 |
| CC(NC(=O)c1cc(C(=O)NC(Cc2ccccc2)C(O)CNCc2cnccn2)cc(N(C)S(C)(=O)=O)c1)c1ccccc1 (stereo not drawn) [N1-(3-hydroxy-1-phenyl-4-(pyrazin-2-ylmethylamino)butan-2-yl)-5-(N-methylmethylsulfonamido)-N3-(1-phenylethyl)isophthalamide] | < 300 | > 501 | < 1000 |
